Data from patent US20140243374A1, “Novel Sulfonamides” (The Brigham and Women's Hospital, Inc., priority 2011, published 2014).
Where “and” joins values, the source holds several entries; their conditions need not be identical. Identical values can stand only once.

Legend:
[1] = target: T1, γ-secretase (cleavage of Notch) (Homo sapiens, UniProt P49768); assay: Notch cellular assay (luciferase reporter U2OS cells); format: cell-based; settings: for IC50: U2OS luciferase reporter cells; for Notch Luc/Aβ42: ratio Notch luciferase IC50 to Aβ42 IC50
T1 construct: endogenous in cells; host or cells: U2OS luciferase reporter cells with Tet-on Notch
Protocol: This assay was used to determine if the compounds of interest inhibit the cleavage of Notch by γ-secretase in cells. A U2OS cell line in which the luciferase expression is adjusted by active Notch was used in this assay Notch expression is adjusted using Tet-on promoter. Luciferase reporter U2OS cells are plated at 1000 cells/well in 96 well plates in DMEM containing 100 μg/mL hygromycin, 15 μg/mL blasticidin and 1 μg/mL Tetracycline. Compounds were added 24 h after plating and the cells are lysed 6 days after adding compounds. Luciferase expression was performed using Steady-Glo Luciferase Assay System (Promega).

[2] = target: T2, γ-secretase (cleavage of APP, Aβ42) (Homo sapiens, UniProt P49768); assay: Aβ (1-42) cellular assay (Aβ ELISA, HEK AP-GL-T1 6 cells); format: cell-based; settings: for IC50: cellular Aβ42 ELISA, 24 h compound treatment; for inhibition at 1 µM: at 1 μM (concentration in brackets)
T2 construct: endogenous in cells; host or cells: HEK AP-GL-T16 luciferase reporter cells (tetracycline-induced APP substrate)
Procedure, shortened: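 HEK AP-GL-T1 6 cells, with APP processing induced by tetracycline at compound addition 24 h post-plating. After 24 h of treatment, Aβ42 in conditioned medium (protease inhibitors added, frozen) was quantified by fluorometric sandwich ELISA (ex 460/em 560 nm) against an Aβ peptide standard curve.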

[3] = target: T3, γ-secretase (Notch cleavage activity) (Homo sapiens, UniProt P49768); assay: Cleaved Notch1 Sandwich ELISA (SUP-T1 cell line); format: cell-based; settings: for IC50: SUP-T1 cells, 16 h; for Notch Elisa/Aβ42: ratio Notch Elisa IC50 to Aβ42 IC50
T3 construct: endogenous in cells; host or cells: SUP-T1 cells
Procedure, shortened: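 SUP-T1 cells endogenously express a truncated Notch fragment that serves as γ-secretase substrate. Cells at 1.0×10^6 cells/mL in RPMI-1640 with 10% FBS were treated 16 h with serially diluted compounds in DMSO. Cleaved Notch intracellular domain was quantified by sandwich ELISA on equal protein amounts.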

Row | SMILES | IC50 [1] | IC50 [2] | melting point | Notch Luc/Aβ42 [1] | IC50 [3] | Notch Elisa/Aβ42 [3] | inhibition at 30 µM ([2]; at 30 μM (concentration in brackets), read-out: Aβ42 % Inh) | inhibition at 1 µM ([2]; read-out: Aβ42 % Inh)
1 | CC1CCCCC1N(Cc1ccc(C(=O)NC(C)(C)CO)cc1)S(=O)(=O)c1ccc(Cl)cc1 (stereo not drawn) [Example 37, 4-((4-Chloro-N-(2-methylcyclohexyl)phenylsulfonamido)methyl)-N-(1-hydroxy-2-methylpropan-2-yl)benzamide] | 2540 nM | 20.9 nM | 116 to 117 °C |  |  |  |  | 
2 | CC[C@@H](C1CCCCC1)N(Cc1ccc(C(=O)O)cc1)S(=O)(=O)c1ccc(Cl)cc1 [Example 15, (S)-4-((4-Chloro-N-(1-cyclohexylpropyl)phenylsulfonamido)methyl)benzoic acid] | 20000 nM | 28 nM | 147 to 149 °C | 715 |  |  |  | 
3 | CC1CCCCC1N(Cc1ccc(C(=O)O)cc1)S(=O)(=O)c1ccc(C(F)(F)F)nc1 (stereo not drawn) [Example 32, 4-((N-(2-Methylcyclohexyl)-6-(trifluoromethyl)pyridine-3-sulfonamido)methyl)benzoic acid] | 4800 nM | 28.4 nM | 117 to 119 °C | 169 |  |  |  | 
4 | CC1CCCCC1N(Cc1ccc(C(=O)NCCO)cc1)S(=O)(=O)c1ccc(Cl)cc1 (stereo not drawn) [Example 6, 4-((4-Chloro-N-(2-methylcyclohexyl)phenylsulfonamido)methyl)-N-(2-hydroxyethyl)benzamide] | 990 nM | 0.83 nM | 105 to 107 °C | 1192 | 130 nM | 157 |  | 
5 | CC[C@@H](C1CCCC1)N(Cc1ccc(C(=O)O)cc1)S(=O)(=O)c1ccc(Cl)cc1 [Example 20, (S)-4-((4-Chloro-N-(1-cyclopentylpropyl)phenylsulfonamido)methyl)benzoic acid] | 40000 nM and 100000 nM | 50 nM | 67 to 69 °C | 1400 |  |  |  | 
6 | O=C(O)c1ccc(CN(C2CCCCC2)S(=O)(=O)c2ccc(Cl)cc2)cc1 [Example 45, 4-((4-chloro-N-cyclohexylphenylsulfonamido)methyl)benzoic acid] |  | 216 nM and 47.4 nM and 180 nM | 135 to 137 °C |  | 35900 nM | 243 |  | 
7 | O=C(O)c1ccc(CN(C2CCCCC2F)S(=O)(=O)c2ccc(Cl)cc2)c(F)c1F (stereo not drawn) [Example 72, 4-((4-Chloro-N-(2-fluorocyclohexyl)phenylsulfonamido)methyl)-2,3-difluorobenzoic acid] |  | 48.5 nM | 108 to 109 °C |  | 3540 nM | 73 |  | 
8 | CC1CCCCC1N(Cc1ccc(C(=O)O)cc1)S(=O)(=O)c1ccc(Cl)cc1 (stereo not drawn) [Example 3, 4-((4-Chloro-N-(2-methylcyclohexyl)phenylsulfonamido)methyl)benzoic acid] | 5000 nM and 4400 nM and 4300 nM | 7 nM and 12.7 nM and 3.8 nM | 180 to 182 °C | 585 | 350 nM | 45 |  | 
9 | CC1CCCCC1N(Cc1ccc(C(=O)N[C@@H](C)CO)cc1)S(=O)(=O)c1ccc(Cl)cc1 (stereo partly drawn) [Example 5, 4-((4-Chloro-N-(2-methylcyclohexyl)phenylsulfonamido)methyl)-N—((S)-1-hydroxypropan-2-yl)benzamide] | 2300 nM | 1.1 nM and 1.8 nM | 95 to 97 °C | 1586 | 160 nM | 110 |  | 
10 | C[C@H](CO)NC(=O)c1ccc(CN(C2CCCCC2F)S(=O)(=O)c2ccc(Cl)cc2)c(F)c1F (stereo partly drawn) [Example 77, 4-((4-Chloro-N-(2-fluorocyclohexyl)phenylsulfonamido)methyl)-2,3-difluoro-N—((R)-1-hydroxypropan-2-yl)benzamide] |  | 4.24 nM and 3.36 nM | 126 to 128 °C |  | 1020 nM | 268 |  | 
11 | CC1CCCCC1N(Cc1ccc(C(=O)NC(C)(C)C(=O)O)cc1)S(=O)(=O)c1ccc(Cl)cc1 (stereo not drawn) [Example 34, 2-(4-((4-Chloro-N-(2-methylcyclohexyl)phenylsulfonamido)methyl)benzamido)-2-methylpropanoic acid] | 8090 nM | 135 nM | 121 to 122 °C | 60 |  |  |  | 
12 | O=C(O)c1ccc(CN(C2CCCCC2Cl)S(=O)(=O)c2ccc(Cl)cc2)cc1 (stereo not drawn) [Example 81, 4-((4-Chloro-N-(2-chlorocyclohexyl)phenylsulfonamido)methyl)benzoic acid] |  |  | 158 to 160 °C |  |  |  | 0% | 
13 | CC[C@H](C1CCCC1)N(Cc1ccc(C(=O)OC)cc1)S(=O)(=O)c1ccc(Cl)cc1 [Example 22, (R)-Methyl 4-((4-chloro-N-(1-cyclopentylpropyl)phenylsulfonamido)methyl)benzoate] |  |  | 81 to 83 °C |  |  |  |  | 0%
14 | N#Cc1ccc(CN(C2CCC2)S(=O)(=O)c2ccc(Cl)cc2)c(F)c1 [Example 26, 4-Chloro-N-(4-cyano-2-fluorobenzyl)-N-cyclobutylbenzenesulfonamide] |  |  | 125 to 127 °C |  |  |  |  | 54%
15 | Cc1ccc(S(=O)(=O)N(Cc2ccc(C#N)cc2F)C2CCCC2)cc1 [Example 29, N-(4-Cyano-2-fluorobenzyl)-N-cyclopentyl-4-methylbenzenesulfonamide] |  |  | 178 to 179 °C |  |  |  |  | 0%
